In PubChem BioAssay (NCI):
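Protocol summary: plate cells (96-well), add compound at 5 concentrations, incubate 48 h, interpolate endpoints linearly. The concentration for 50% growth inhibition is given as GI50. TGI: total growth inhibition.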

What was measured:
Assay in all cases: DTP human tumour cell line panel, 48 h
[1] = test system: MCF7 breast
[2] = test system: NCI-H23 lung
[3] = test system: OVCAR-8 ovarian
[4] = test system: HCT-15 colon
[5] = test system: HCT-116 colon
[6] = test system: BT-549 breast
[7] = test system: OVCAR-5 ovarian
[8] = test system: HCC-2998 colon
[9] = test system: MOLT-4 leukemia
[10] = test system: CAKI-1 renal
[11] = test system: TK-10 renal
[12] = test system: CCRF-CEM leukemia
[13] = test system: NCI-H460 lung
[14] = test system: SF-295 CNS
[15] = test system: A498 renal
[16] = test system: SF-539 CNS
[17] = test system: T-47D breast
[18] = test system: LOX IMVI melanoma
[19] = test system: OVCAR-3 ovarian
[20] = test system: MDA-MB-468 breast
[21] = test system: U251 CNS
[22] = test system: HOP-92 NSCLC
[23] = test system: UACC-257 melanoma
[24] = test system: HOP-62 NSCLC
[25] = test system: SK-OV-3 ovarian
[26] = test system: SR leukemia
[27] = test system: MDA-MB-435
[28] = test system: HL-60(TB) leukemia
[29] = test system: ACHN renal

## CN(C(=O)c1ccc(C(C)(C)C)cc1)c1sc2c(c1C#N)CCC(=O)C2
[1]
  GI50: 11.8 µM
  TGI: 32 µM
[2]
  GI50: 2.42 µM
  TGI: 6.56 µM
[3]
  GI50: 9.16 µM
  TGI: 39.6 µM
[4]
  GI50: 2.04 µM
  TGI: 4.13 µM
[5]
  GI50: 2.08 µM
  TGI: 4.91 µM
[6]
  GI50: 1.98 µM
  TGI: 4.88 µM
[7]
  GI50: 14 µM
  TGI: 27.6 µM
[8]
  GI50: 5.09 µM
  TGI: 16.6 µM
[9]
  GI50: 4.21 µM
  TGI: 23.5 µM
[10]
  GI50: 3.8 µM
  TGI: 17.6 µM
[11]
  GI50: 10.4 µM
  TGI: 23 µM
[12]
  GI50: 3.34 µM
  TGI: 10.4 µM
[13]
  GI50: 13.1 µM
  TGI: 27.5 µM
[14]
  GI50: 3.45 µM
  TGI: 14 µM
[15]
  GI50: 15.4 µM
  TGI: 29.4 µM
[16]
  GI50: 1.77 µM
  TGI: 3.42 µM
[17]
  GI50: 1.83 µM
  TGI: 4.07 µM
[18]
  GI50: 2.11 µM
  TGI: 5.2 µM
[19]
  GI50: 2.43 µM
  TGI: 5.9 µM
[20]
  GI50: 2.27 µM
  TGI: 5.63 µM
[21]
  GI50: 1.82 µM
  TGI: 3.9 µM
[22]
  GI50: 3.51 µM
  TGI: 15.7 µM
[23]
  GI50: 18 µM
  TGI: 33.7 µM
[24]
  GI50: 15.2 µM
  TGI: 32.1 µM
[25]
  GI50: 17.9 µM
  TGI: 34.1 µM
[26]
  GI50: 2.28 µM
  TGI: 7.1 µM
[27]
  GI50: 5.8 µM
  TGI: 21.1 µM
[28]
  GI50: 8.84 µM
  TGI: 30.3 µM
[29]
  GI50: 3.2 µM
  TGI: 10.5 µM
